From patent US20250206704A1, “ENGINEERED IONOPHORES FOR TRANSPORT OF METAL IONS” (The Brigham and Women's Hospital, Inc., priority 2022, published 2025)
Converted amounts (≈) assume the structure as drawn. “Also recorded” adds a separate entry of the source. Where two headings read alike, the source gives them in different places.

Tests used:
[1] = system: Staphylococcus epidermidis; test: MIC, broth microdilution; assay type: cell-based
Text: (§1) Next, Applicants evaluated the antibacterial activities of the ionophores. First, Applicants determined their minimum inhibitory concentration (MIC) in the gram-positive bacterium that causes hospital-acquired infections, Staphylococcus epidermidis.
(§2) Applicants reasoned that limiting extracellular zinc with EDTA would abolish ionophore activity by depleting the available metal ions for membrane transport. […] [24]
(§3) Staphylococcus epidermidis ATCC® 12228™, Staphylococcus caprae ATCC® 51549™, Bacillus subtilis ATCC® 6051™, and Bacillus cereus ATCC® 14579™ were grown in cation-adjusted Mueller-Hinton broth (CA-MHB) (catalog no. 90922, Sigma) as per the Clinical and Laboratory Standards Institute guidelines.2 Bacteria were routinely grown at 37° C. under aerobic conditions.
(§4) The MIC assay was performed according to the Clinical and Laboratory Standards Institute protocols.^3 The antibacterial activities of the compounds were measured using the broth microdilution method. Serial dilutions of compounds were prepared in cation-adjusted Müller Hinton Broth. Each dilution (100 μL) was dispensed to each well of a round-bottom plate to obtain final concentrations ranging from 0.07815-40 μM. Bacteria were grown at 37° C. overnight on cation-adjusted Müller Hinton Broth. The bacterial solution was prepared in 0.9% saline and adjusted to obtain an OD600=0.1 using a SpectraMax M5 (Molecular Devices). The resultant suspension was diluted 1:20 with cation-adjusted Müller Hinton Broth. The resulting mixture (10 μL) was added to each well of the plates (approximately 5×10^4 CFU/well), mixed, and incubated at 37° C. for 24 h. The MIC value was determined as the minimum concentration that inhibited the growth of bacteria.

U2OS cells [2] = test: ICP-MS analysis of intracellular Zn(II) in U2OS cells; assay type: cell-based; settings: 10 μM Zn(II) and 5 μM compound, 1 hour
Method: Next, Applicants used inductively coupled plasma mass spectrometry (ICP-MS) to validate the imaging assay and the ionophores activity (FIG. 1F). While the intracellular Zn^II levels where similar between DMSO and chelator 1, Zn^II concentrations inside cells were 3-fold higher when Applicants co-treated ionophores 8 and 9.
U2OS cells (˜200,000) were plated in a 6-well dish. After a day, the medium was aspirated, and Zn(II) (10 μM) and compounds (5 μM) containing media (2 mL) were added to each appropriate well. Cells were harvested by first washing each well with PBS containing EDTA (100 μM, 2×2.0 mL) and subsequently adding Milli-Q water ([…] to each well and incubating for 2-4 min. A portion of the resulting cell lysate (900 μL) was collected and transferred to an Eppendorf Safe-Lock tube, snap-frozen in N2(l), and then thawed at room temperature (RT) for a total of three freeze-thaw cycles. The insoluble lysate was pelleted (10 min at 10,000 g), and the soluble protein concentration of each sample was determined using the Pierce 660 nm Protein Assay in a 96-well plate (200 μL of reagent, 14 μL of sample, bovine serum albumin standard curve). Samples were then frozen and lyophilized overnight, and the resulting white, flaky solid was taken up in concentrated nitric acid (200 μL, ultrapure for trace metal analysis, BDH Aristar) and heated at 70° C. for 1 h. A portion of each sample (142 μL) was then diluted with water (2 mL) and a terbium internal standard (Agilent 5190-8590; stock at 10,000 parts per billion [ppb] in 10% nitric acid diluted to 100 ppb in Milli-Q water for addition to samples, 2 ppb final concentration), after which the metal content of the samples was assessed by ICP-MS. […] Therefore, 1 ppb was taken to be equal to 1 μg/L, and the molarity of a particular solution was considered equal to the measured concentration of a particular ion in ppb, divided by the molecular weight of the ion, multiplied by 10-6.

[3] = UV/Vis titration, stability constant (logK) with ZnCl2; assay type: physicochemical; settings: UV/Vis titration with ZnCl2, TitrationFit
Text: Applicants validated the design principles by confirming that the silyl group lowered the binding affinity and shielded the hydrophilic pocket. […] [17] […] Applicants confirmed that all compounds bound Zn^II with 1:1 stoichiometry (FIG. 12). […] Applicants superimposed the X-ray structure of the TIPS-containing Zn^II:9 complex with the literature precedented Zn^II:1 and observed significant structural distortion in the Zn^II:9 complex, which could explain the lower logK.
A solution of ligand was prepared in acetonitrile. The starting concentration was chosen to be around 0.10 mM, based on the absorption maximum of the compound. This solution (2.5 mL) was pipetted into a quartz cuvette with a 1-cm optical path length. The titration was performed by the stepwise addition of a 10-mM ZnC12 solution in acetonitrile. The absorption spectra were measured over the range of 250-800 nm. The calculation of the stability constants was accomplished using TitrationFit.1

U2OS cells [4] = test: Zinc imaging assay (DA-ZP1 fluorescence) of ionophore activity in U2OS cells; assay type: cell-based; settings: U2OS cells; for ionophore activity (DA-ZP1 fluorescence): 10 μM Zn(II) and 5 μM compound; for ionophore activity (Zn^II transport, DA-ZP1 fluorescence): 10 μM Zn(II) and 10 μM compound, 1 hour, then DA-ZP1; for concentration at which ionophore activity is displayed: DA-ZP1, comparison with known ionophores
Text: A number of bispicolyl-based Zn^II-chelators were synthesized with increasing size at the ortho-position of phenolic OH by a one-step reductive amination between bispicolyl-amine and commercially available 3-substituted salicylaldehydes. Applicants examined the ionophore activity of bispicolyl analogs with methyl (Me, 2), isopropyl (iPr, 3), and tert-butyl (tBu, 4) substitutions (FIG. 1A). […] [13] The cells were first treated with ZnCl2 and ionophore candidates followed by DA-ZP1 treatment and fluorescence measurement.
Applicants experimentally determined the ionophore activity of these silyl-based compounds using the aforementioned DAZ-P1 assay in U2OS cells.
Applicants also determined metal-ion interference of the silyl-based ionophores with focused efforts on 8. Applicants designed a competition assay wherein Applicants pre-treated equimolar amounts of various metal ions, Mg^II, Ca^II, Mn^II, Fe^II, and Na^I, with 10 μM of Zn^II for 1 hour before treatment with DA-ZP1.
Finally, Applicants compared the activity of the designed compounds against known ionophores (FIGS. 2 and 11). […] [16]
In a 96-well plate, 20,000 U2OS cells were plated per well and cultured for 24 h in the incubator set to 37° C. with 5% CO2. […] The medium containing the compound was removed, and the cells were washed with 3×100 μL of fresh medium, and finally another 100 μL of 2 μM of DA-ZP1 was added to the corresponding cell culture medium containing HCS NuclearMask Blue Stain. The cells were again kept for 1 h in the incubator. The medium containing compound was removed, and the cells were washed with 1×100 μL of PBS and 2×100 μL of fresh medium, and finally, another 100 μL of fresh, dye-free medium was added. The cells were immediately imaged using a high-content fluorescence microscope (Operetta Phenix) in both the DAPI and FITC channels at 20× magnification. Images were analyzed using the Harmony software, and data were plotted using GraphPad Prism 9.

[5] = value quoted for comparison; cited from earlier work
bacteria vs U2OS cells = test: Antibacterial selectivity (average molar MIC in bacteria vs EC50 in U2OS cells); assay type: cell-based
[6] = system: S. epidermidis, S. caprae, B. subtilis, B. cereus; test: Average MIC over the four gram-positive strains; assay type: cell-based
Method: as §1, §4

U2OS cells [7] = test: U2OS cell viability assay (CellTiter-Glo); assay type: cell-based; settings: Homo sapiens, 48 h, read-out: U2OS EC50 + 5 μM Zn^II
Method: as §2
U2OS cells were seeded in black 384-well plates at a density of 3,000 cells per well in 25 μL of medium per well. After seeding, the cells were left to adhere overnight. The compounds to be tested were added to the designated culture plates in 25 μL of medium in triplicate with a normalized DMSO concentration (0.05%) in all treatments, and the plates were placed at 37° C. in a humidified atmosphere containing 5% CO2. After 48 h, 40 μl of CellTiter-Glo (Promega) was added to each well and incubated for 30 min, after which the plate luminescence was analyzed in a PerkinElmer EnVision Manager 1.13 (PerkinElmer). The average growth of treated cells was calculated by correcting the values for background luminescence and was subsequently normalized to the average of the two lowest treatments of the compound in question. Data were plotted and fitted to a dose-response curve using GraphPad Prism 9.

Bacillus subtilis = test: MIC, broth microdilution; assay type: cell-based; settings: read-out: Strain MIC B. subtilis
Method: as §1, §3, §4

Staphylococcus caprae = test: MIC, broth microdilution; assay type: cell-based; settings: read-out: Strain MIC S. caprae
Method: as §1, §3, §4

Bacillus cereus = test: MIC, broth microdilution; assay type: cell-based; settings: read-out: Strain MIC B. cereus
Method: as §1, §3, §4

With CC[Si](CC)(CC)c1cccc(CN(Cc2ccccn2)Cc2ccccn2)c1O [Compound 7, 2-((bis(pyridin-2-ylmethyl)amino)methyl)-6-(triethylsilyl)phenol] as the compound, how does the MIC ([1]; read-out: MIC) read?
The MIC was roughly 8.4 µg/mL (≈ 20 µM).

With Oc1ccccc1CN(Cc1ccccn1)Cc1ccccn1 [Compound 1, 2-((bis(pyridin-2-ylmethyl)amino)methyl)phenol] as the compound, how does the “intracellular Zn^II level relative to DMSO” value (U2OS cells [2]) read?
The value was “similar”.

What about the “logK (Zn^II binding)” value [3] of the same compound?
Its value is 12.5.

Which results are given for C[Si](C)(C)c1cccc(CN(Cc2ccccn2)Cc2ccccn2)c1O [Compound 6, 2-((bis(pyridin-2-ylmethyl)amino)methyl)-6-(trimethylsilyl)phenol]?
MIC ([1]; read-out: MIC): ~7.5 µg/mL (≈ 19.9 µM); ionophore activity (DA-ZP1 fluorescence) (U2OS cells [4]): elicited detectable fluorescence

With C[C@H](CCC(=O)O)C[C@H](C)C[C@H](C)C(=O)/C=C(\O)[C@H](C)C[C@H](C)C/C=C/[C@@H](C)[C@@H](O)[C@@H](C)[C@@H](O)C[C@@H]1CC[C@@](C)([C@H]2CC[C@@](C)([C@@H](C)O)O2)O1 [ionomycin, reference compound] as the compound, how does the MIC [1] read?
The MIC was 15 µg/mL (≈ 21.2 µM).

Which MIC ([1]; read-out: MIC) does the source give for CC(C)(C)[Si](c1ccccc1)(c1ccccc1)c1cccc(CN(Cc2ccccn2)Cc2ccccn2)c1O [Compound 10, 2-((bis(pyridin-2-ylmethyl)amino)methyl)-6-(tert-butyldiphenylsilyl)phenol] here?
Its MIC is roughly 5.4 µg/mL (≈ 9.93 µM).

What about the “ionophore activity (DA-ZP1 fluorescence)” value (U2OS cells [4]) of the same compound?
Its value is “decreased the activity”.

For c1ccc(CN(CCN(Cc2ccccn2)Cc2ccccn2)Cc2ccccn2)nc1 [TPEN, reference compound], which “logK (Zn^II binding) of known chelator/ionophore” value [5] is on record?
The value was 15.5.

For CC[C@@H](C(=O)[C@@H](C)[C@@H](O)[C@H](C)[C@@H]1O[C@@H]([C@@H](CC)C(=O)O)CC[C@@H]1C)[C@H]1O[C@]2(C=C[C@@H](O)[C@]3(CC[C@@](C)([C@H]4CC[C@](O)(CC)[C@H](C)O4)O3)O2)[C@H](C)C[C@@H]1C [salinomycin, reference compound], which MIC [1] is on record?
Its MIC is 1.88 µg/mL (≈ 2.5 µM).

With CC(C)(C)c1ccc(O)c(CN(Cc2ccccn2)Cc2ccccn2)c1 [Compound 5, 2-((bis(pyridin-2-ylmethyl)amino)methyl)-4-(tert-butyl)phenol] as the compound, how does the antibacterial activity ([1]; control compound) read?
Its antibacterial activity is “no ionophore activity in U2OS cells or antibacterial activity”.

And the “ionophore activity (Zn^II transport, DA-ZP1 fluorescence)” value (U2OS cells [4])?
Its value is “poor ionophore activity; also recorded: no ionophore activity”.

For CNc1ccc2oc(C[C@H]3O[C@@]4(CC[C@H]3C)O[C@H]([C@H](C)C(=O)c3ccc[nH]3)[C@H](C)C[C@H]4C)nc2c1C(=O)O [calcimycin, reference compound], which MIC [1] is on record?
Its MIC is roughly 0.16 µg/mL (≈ 0.306 µM).

With CC(C)(C)c1cccc(CN(Cc2ccccn2)Cc2ccccn2)c1O [Compound 4, 2-((bis(pyridin-2-ylmethyl)amino)methyl)-6-(tert-butyl)phenol] as the compound, how does the MIC ([1]; read-out: MIC) read?
Its MIC is 7.2 µg/mL (≈ 19.9 µM).

What about the “ionophore activity (Zn^II transport, DA-ZP1 fluorescence)” value (U2OS cells [4]) of the same compound?
Its value is “efficiently transported Zn^II”.

For [O-][n+]1ccccc1S [Pyrithione, pyrithione, reference compound], which MIC [1] is on record?
Its MIC is 1.3 µg/mL (≈ 10.2 µM).

What about the MIC ([1]; read-out: Strain MIC S. epidermidis) of the same compound?
The MIC was 1.3 µg/mL (≈ 10.2 µM).

And the antibacterial selectivity (bacteria vs U2OS cells)?
Its antibacterial selectivity is 0.11 times.

And the “selective toxicity to bacterial cells over mammalian cells” value (bacteria vs U2OS cells)?
The value was 0.1 fold.

What about the “antibacterial selectivity” value (bacteria vs U2OS cells; ratio of average molar MIC and U2OS EC50, Table 4) of the same compound?
Its value is 0.11.

What about the “concentration at which ionophore activity is displayed” value (U2OS cells [4]) of the same compound?
The value was 5 µM.

What about the MIC ([6]; read-out: Average MIC) of the same compound?
The MIC was 1.1 µg/mL.

And the MIC ([6]; read-out: Average MIC (molar, in brackets))?
The MIC was 8.7 µM.

What about the MIC ([6]; read-out: average MIC) of the same compound?
Its MIC is 1.1 µg/mL.

What about the CC50 (U2OS cells [7]) of the same compound?
Its CC50 is 990 nM.

And the MIC (Bacillus subtilis)?
The MIC was 1.3 µg/mL (≈ 10.2 µM).

And the MIC (Staphylococcus caprae)?
The MIC was 0.6 µg/mL (≈ 4.72 µM).

And the MIC (Bacillus cereus)?
The MIC was 1.3 µg/mL (≈ 10.2 µM).

For CC(C)(C)n1ccn([BH-](n2ccn(C(C)(C)C)c2=S)n2ccn(C(C)(C)C)c2=S)c1=S.[K+] [potassium hydrotris(N-tert-butyl-2-thioimidazolyl) borate, reference compound], which “concentration at which ionophore activity is displayed” value (U2OS cells [4]) is on record?
Its value is 5 µM.

With CC[C@@H](C(=O)O)[C@@H]1O[C@@H]([C@@H](C)[C@H](O)[C@H](C)C(=O)[C@H](CC)[C@H]2O[C@]3(C=C[C@@H](O)[C@]4(CC[C@@](C)([C@H]5CC[C@](O)(CC)[C@H](C)O5)O4)O3)[C@H](C)C[C@@H]2C)[C@@H](C)C[C@@H]1C [narasin, reference compound] as the compound, how does the MIC ([1]; read-out: MIC) read?
The MIC was 0.96 µg/mL (≈ 1.25 µM).
